Results from the supplement of paper PMC10307832.

Tests used:
Assay in all cases: relative viability (nuclei count vs DMSO), 5 days (fraction); higher = more cells survive
[1] = compound: CCc1c2c(nc3ccc(OC(=O)N4CCC(N5CCCCC5)CC4)cc13)-c1cc3c(c(=O)n1C2)COC(=O)[C@]3(O)CC [Irinotecan] + COc1cccc2cc(-c3nc([C@H]4CC[C@H](C(=O)O)CC4)n4ncnc(N)c34)[nH]c12 [OSI-027] (partner 0.5 µM)
How it was run: (§1)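 Five library-drug doses in √10 steps were combined with a fixed anchor-drug dose, or a single drug was given alone, by pin tool to lung cancer cell lines in 1536-well plates the day after seeding. Nuclei were stained and counted after 5 days. Relative viability is the nuclei count in treated wells over that in vehicle wells, taken as the median of duplicate plates.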

[2] = compound: CC[C@@H](C)CNCC(=O)N1CCC2=C([C@@H]1COC3=CC=CC(=C3)C)C=CS2 [RU-SKI 43] + O=C(CCCCCCC(=O)Nc1ccccc1)NO [Vorinostat] (partner 1 µM)
How it was run: as §1

[3] = compound: Cn1cc(-c2cnc3ccc4ccc(CS(=O)(=O)NCc5ccccn5)cc4c(=O)c3c2)cn1 [MK-8033] + Cc1nc(NC(=O)N2CCC[C@H]2C(N)=O)sc1-c1ccnc(C(C)(C)C(F)(F)F)c1 [Alpelisib] (partner 2 µM)
How it was run: as §1

[4] = compound: CC[C@@H](C)CNCC(=O)N1CCC2=C([C@@H]1COC3=CC=CC(=C3)C)C=CS2 [RU-SKI 43] + COc1cccc2cc(-c3nc([C@H]4CC[C@H](C(=O)O)CC4)n4ncnc(N)c34)[nH]c12 [OSI-027] (partner 0.5 µM)
How it was run: as §1

## NCI-H1651
[1]; first compound 0.6325 µM
  relative viability: 0.532
[1]; first compound 2 µM
  relative viability: 0.485
[1]; first compound 6.325 µM
  relative viability: 0.349
[1]; first compound 20 µM
  relative viability: 0.174
[2]; first compound 0.1 µM
  relative viability: 0.617
[2]; first compound 0.3162 µM
  relative viability: 0.573
[2]; first compound 1 µM
  relative viability: 0.676
[2]; first compound 3.162 µM
  relative viability: 0.559
[2]; first compound 10 µM
  relative viability: 0.548
[3]; first compound 0.02 µM
  relative viability: 0.888
[3]; first compound 0.06325 µM
  relative viability: 0.808
[3]; first compound 0.2 µM
  relative viability: 0.931
[3]; first compound 0.6325 µM
  relative viability: 0.898
[3]; first compound 2 µM
  relative viability: 0.982
[4]; first compound 0.1 µM
  relative viability: 0.838
[4]; first compound 0.3162 µM
  relative viability: 0.768
[4]; first compound 1 µM
  relative viability: 0.878
[4]; first compound 3.162 µM
  relative viability: 0.764
[4]; first compound 10 µM
  relative viability: 0.846

## NCI-H2087
[1]; first compound 0.6325 µM
  relative viability: 0.239
[1]; first compound 2 µM
  relative viability: 0.339
[1]; first compound 6.325 µM
  relative viability: 0.157
[1]; first compound 20 µM
  relative viability: 0.166
[2]; first compound 0.1 µM
  relative viability: 0.818
[2]; first compound 0.3162 µM
  relative viability: 1.02
[2]; first compound 1 µM
  relative viability: 0.985
[2]; first compound 3.162 µM
  relative viability: 0.789
[2]; first compound 10 µM
  relative viability: 0.57
[3]; first compound 0.02 µM
  relative viability: 1.15
[3]; first compound 0.06325 µM
  relative viability: 1.05
[3]; first compound 0.2 µM
  relative viability: 1.05
[3]; first compound 0.6325 µM
  relative viability: 1.05
[3]; first compound 2 µM
  relative viability: 1
[4]; first compound 0.1 µM
  relative viability: 0.666
[4]; first compound 0.3162 µM
  relative viability: 0.56
[4]; first compound 1 µM
  relative viability: 0.705
[4]; first compound 3.162 µM
  relative viability: 0.563
[4]; first compound 10 µM
  relative viability: 0.516

## NCI-H661
[1]; first compound 0.6325 µM
  relative viability: 0.653
[1]; first compound 2 µM
  relative viability: 0.654
[1]; first compound 6.325 µM
  relative viability: 0.415
[1]; first compound 20 µM
  relative viability: 0.212
[2]; first compound 0.1 µM
  relative viability: 0.752
[2]; first compound 0.3162 µM
  relative viability: 0.984
[2]; first compound 1 µM
  relative viability: 0.815
[2]; first compound 3.162 µM
  relative viability: 0.777
[2]; first compound 10 µM
  relative viability: 0.736
[3]; first compound 0.02 µM
  relative viability: 0.581
[3]; first compound 0.06325 µM
  relative viability: 0.261
[3]; first compound 0.2 µM
  relative viability: 0.634
[3]; first compound 0.6325 µM
  relative viability: 0.592
[3]; first compound 2 µM
  relative viability: 0.778
[4]; first compound 0.1 µM
  relative viability: 0.721
[4]; first compound 0.3162 µM
  relative viability: 0.808
[4]; first compound 1 µM
  relative viability: 0.724
[4]; first compound 3.162 µM
  relative viability: 0.694
[4]; first compound 10 µM
  relative viability: 0.68

## LXF-289
[1]; first compound 0.6325 µM
  relative viability: 0.472
[1]; first compound 2 µM
  relative viability: 0.797
[1]; first compound 6.325 µM
  relative viability: 0.421
[1]; first compound 20 µM
  relative viability: 0.24
[2]; first compound 0.1 µM
  relative viability: 0.725
[2]; first compound 0.3162 µM
  relative viability: 0.784
[2]; first compound 1 µM
  relative viability: 0.796
[2]; first compound 3.162 µM
  relative viability: 0.634
[2]; first compound 10 µM
  relative viability: 0.84
[3]; first compound 0.02 µM
  relative viability: 1.08
[3]; first compound 0.06325 µM
  relative viability: 0.984
[3]; first compound 0.2 µM
  relative viability: 0.976
[3]; first compound 0.6325 µM
  relative viability: 0.994
[3]; first compound 2 µM
  relative viability: 0.998
[4]; first compound 0.1 µM
  relative viability: 0.776
[4]; first compound 0.3162 µM
  relative viability: 0.874
[4]; first compound 1 µM
  relative viability: 0.951
[4]; first compound 3.162 µM
  relative viability: 0.827
[4]; first compound 10 µM
  relative viability: 0.733

## LC-2-ad
[1]; first compound 0.6325 µM
  relative viability: 0.384
[1]; first compound 2 µM
  relative viability: 0.606
[1]; first compound 6.325 µM
  relative viability: 0.372
[1]; first compound 20 µM
  relative viability: 0.148
[2]; first compound 0.1 µM
  relative viability: 0.739
[2]; first compound 0.3162 µM
  relative viability: 0.738
[2]; first compound 1 µM
  relative viability: 0.697
[2]; first compound 3.162 µM
  relative viability: 0.693
[2]; first compound 10 µM
  relative viability: 0.633
[3]; first compound 0.02 µM
  relative viability: 0.888
[3]; first compound 0.06325 µM
  relative viability: 0.864
[3]; first compound 0.2 µM
  relative viability: 0.825
[3]; first compound 0.6325 µM
  relative viability: 0.823
[3]; first compound 2 µM
  relative viability: 0.849
[4]; first compound 0.1 µM
  relative viability: 0.733
[4]; first compound 0.3162 µM
  relative viability: 0.821
[4]; first compound 1 µM
  relative viability: 1.04
[4]; first compound 3.162 µM
  relative viability: 0.979
[4]; first compound 10 µM
  relative viability: 0.789

## NCI-H2085
[1]; first compound 0.6325 µM
  relative viability: 0.435
[1]; first compound 2 µM
  relative viability: 0.71
[1]; first compound 6.325 µM
  relative viability: 0.568
[1]; first compound 20 µM
  relative viability: 0.495
[2]; first compound 0.1 µM
  relative viability: 0.705
[2]; first compound 0.3162 µM
  relative viability: 0.659
[2]; first compound 1 µM
  relative viability: 0.808
[2]; first compound 3.162 µM
  relative viability: 0.793
[2]; first compound 10 µM
  relative viability: 0.726
[3]; first compound 0.02 µM
  relative viability: 0.873
[3]; first compound 0.06325 µM
  relative viability: 0.936
[3]; first compound 0.2 µM
  relative viability: 0.925
[3]; first compound 0.6325 µM
  relative viability: 0.823
[3]; first compound 2 µM
  relative viability: 0.971
[4]; first compound 0.1 µM
  relative viability: 0.705
[4]; first compound 0.3162 µM
  relative viability: 0.678
[4]; first compound 1 µM
  relative viability: 0.696
[4]; first compound 3.162 µM
  relative viability: 0.834
[4]; first compound 10 µM
  relative viability: 0.552
